Assay results taken from patent publication US20130165343A1, “IDENTIFICATION OF MULTIGENE BIOMARKERS” (AVEO Pharmaceuticals, Inc., priority 2011, published 2013).

Tests used:
[1] = system: BH murine tumor archive (HER2-dependent murine breast tumors); assay: Tumor response to rapamycin in subcutaneously transplanted BH archive murine breast tumors; format: in vivo, mouse; conditions: out of 66 tumors; 0.1 mg/kg daily, intraperitoneal injection
From the text: (§1) A genetically diverse population of more than 100 murine breast tumors (BH archive) was used to identify tumors that are sensitive to a drug of interest (responders) and tumors that are resistant to the same drug of interest (non-responders). The BH archive was established by in vivo propagation and cryopreservation of primary tumor material from more than 100 spontaneous murine breast tumors derived from engineered chimeric mice that develop HER2-dependent, inducible spontaneous breast tumors.
The BH archive of more than 100 tumors was produced essentially as follows. Primary tumor cells were isolated from the chimeric animals by physical disruption of the tumors using cell strainers. Typically 1×10^5 cells were mixed with Matrigel (50:50 by vol.) and injected subcutaneously into female NCr nu/nu mice. When these tumors grew to approximately 500 mm3, which typically required 2 to 4 weeks, they were collected for one further round of in vivo propagation, after which tumor material was cryopreserved in liquid nitrogen. […]
Tumors from the BH murine tumor archive were tested for sensitivity to treatment with rapamycin (also known as sirolimus, or RAPAMUNE®). […] Tumors were measured twice per week by a caliper, and tumor volume was calculated.

[2] = system: BH murine tumor archive (HER2-dependent murine breast tumors); assay: Tumor response to tivozanib in subcutaneously transplanted BH archive murine breast tumors; format: in vivo, mouse
From the text: as §1
The BH archive of more than 100 tumors was produced essentially as follows. Primary tumor cells were isolated from the chimeric animals by physical disruption of the tumors using cell strainers. Typically 1×10^5 cells were mixed with Matrigel (50:50 by vol.) and injected subcutaneously into female NCr nu/nu mice. When these tumors grew to approximately 500 mm3, which typically required 2 to 4 weeks, they were collected for one further round of in vivo propagation, after which tumor material was cryopreserved in liquid nitrogen. To characterize the propagated and archived tumors, 1×10^5 cells from each individual tumor line were thawed and injected subcutaneously in BALB/c nude mice. When the tumors reached a mean size of 500 to 800 mm3, animals were sacrificed and tumors were surgically removed for further analysis.
Tumors in the BH murine tumor archive were tested for sensitivity to treatment with tivozanib. Evaluation of tumor response to this drug treatment was performed essentially as follows. Subcutaneously transplanted tumors were established by injecting physically disrupted tumor cells (mixed with Matrigel) into 6 week-old female BALB/c nude mice. When the tumors reached approximately 100-200 mm3, 20 tumor-bearing mice were randomized into two groups. Group 1 received vehicle. Group 2 received tivozanib at 5 mg/kg daily by oral gavage. Tumors were measured twice per week by a caliper, and tumor volume was calculated.
The variation in response was expected, because the mouse model tumors had been propagated from spontaneously arising tumors, and were therefore expected to contain differing sets of secondary de novo mutations that contributed to tumorogenesis. […] Tivozanib-sensitive tumors and tivozanib-resistant tumors were identified (classified) on the basis of tumor growth inhibition, histopathology and IHC (CD31).

[3] = out of 25 tumors, 5 mg/kg tivozanib, classified by tumor growth inhibition, histopathology and IHC (CD31)

Compound	number of rapamycin-resistant tumors (50% tumor growth inhibition or less) [1]	number of rapamycin-sensitive tumors (more than 50% tumor growth inhibition) [1]	tumor progression (by caliper measurement) in tivozanib-sensitive tumors ([2]; 5 mg/kg daily by oral gavage, BALB/c nude mice, tivozanib-sensitive tumors)	tumor killing in tivozanib-sensitive tumors ([2]; 5 mg/kg, tivozanib-sensitive tumors, histopathology)	number of tumors actually resistant [2, 3]	number of tumors actually sensitive [2, 3]
CO[C@H]1C[C@@H]2CC[C@@H](C)[C@@](O)(O2)C(=O)C(=O)N2CCCC[C@H]2C(=O)O[C@H]([C@H](C)C[C@@H]2CC[C@@H](O)[C@H](OC)C2)CC(=O)[C@H](C)/C=C(\C)[C@@H](O)[C@@H](OC)C(=O)[C@H](C)C[C@H](C)/C=C/C=C/C=C/1C [rapamycin]	25	41				
COc1cc2nccc(Oc3ccc(NC(=O)Nc4cc(C)on4)c(Cl)c3)c2cc1OC [tivozanib]			no tumor progression	close to complete tumor killing, except for the peripheries	16	9
